Test results as given in PMC6008492, “Structure activity relationship studies on rhodanines and derived enethiol inhibitors of metallo-β-lactamases” (Bioorganic & Medicinal Chemistry, 2018).
Like-named read-outs stand apart in the source and are kept apart here.

Assays:
NDM-1 = molecular target: T1, NDM-1 (Klebsiella pneumoniae, UniProt C7C422); test: NDM-1 inhibition, fluorogenic cephalosporin (FC5) hydrolysis; format: biochemical
T1 construct: made in house
Method: (§1) Inhibition analyses against bacterial MBLs and SBLs were performed as described previously.[22], [24], [26] Residual enzyme activities were determined for a range of inhibitor concentrations. Non-linear regression fitting of IC50 curves was carried out using a three-parameter dose–response curve in GraphPad Prism. Errors in IC50 values are expressed as: σ(logIC50)/logIC50×IC50
(§2) We first screened the inhibitors against a representative set of presently clinically important and other MBLs[22], comprising both Class B1 enzymes (NDM-1, New Delhi MBL-1; VIM-2, Verona integron–encoded MBL-2; BcII, Bacillus cereus II MBL; SPM-1, São Paulo MBL-1; IMP-1, imipenemase MBL-1) and the Class B2 MBL CphA (carbapenem hydrolysing MBL from Aeromonas hydrophila).[22] The latter MBL (CphA) only utilises one active site Zn(II) ion in catalysis, whilst the others normally use two Zn(II) ions.
Figure S4: IC50 curves for NDM-1 inhibition time courses. Residual activities were calculated from the
(§3) initial rate of FC5 hydrolysis after incubation of the enzyme with the inhibitor for 10 minutes. […]

[1] = tested on: MBLs (SPM-1, IMP-1, BcII, VIM-2, NDM-1); format: biochemical
Method: as §1
as §2, with “ions. We also screened the inhibitors against a representative panel of SBLs from different classes (TEM-1, Temoneira β-lactamase-1, class A; CTX-M-15, cefotaxime hydrolysing β-lactamase from Munich 15, class A, extended spectrum β-lactamase (ESBL); AmpC E. coli, class C, and OXA-10, oxacillinase-10, class D).” for “ions.”

BcII = molecular target: T2, BcII (Bacillus cereus, UniProt P04190); test: biochemical
T2 construct: made in house
T2 sequence (P04190 31-257): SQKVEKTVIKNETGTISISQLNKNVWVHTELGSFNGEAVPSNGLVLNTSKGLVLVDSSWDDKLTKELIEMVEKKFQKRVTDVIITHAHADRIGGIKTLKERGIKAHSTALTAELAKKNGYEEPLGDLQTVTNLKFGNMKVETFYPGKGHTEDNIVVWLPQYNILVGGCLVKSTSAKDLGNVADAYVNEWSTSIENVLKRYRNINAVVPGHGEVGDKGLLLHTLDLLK
Method: as §1, §2
Figure S2: IC50 curves for BcII inhibition time courses. Residual activities were calculated from the initial
rate of FC5 hydrolysis after incubation of the enzyme with the inhibitor for 10 minutes. […]

CphA = molecular target: T3, CphA (Aeromonas hydrophila, UniProt P26918); test: CphA (subclass B2 MBL) inhibition; format: biochemical
T3 construct: made in house
T3 sequence (P26918 28-254): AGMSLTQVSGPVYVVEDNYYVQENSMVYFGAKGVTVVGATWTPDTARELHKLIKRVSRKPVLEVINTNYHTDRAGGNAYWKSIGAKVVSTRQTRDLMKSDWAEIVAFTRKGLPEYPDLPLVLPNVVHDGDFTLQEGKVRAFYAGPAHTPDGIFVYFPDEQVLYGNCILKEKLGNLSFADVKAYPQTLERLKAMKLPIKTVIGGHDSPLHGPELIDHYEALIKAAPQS
Method: as §1
as §2, with “ions. We also screened the inhibitors against a representative panel of SBLs from different classes (TEM-1, Temoneira β-lactamase-1, class A; CTX-M-15, cefotaxime hydrolysing β-lactamase from Munich 15, class A, extended spectrum β-lactamase (ESBL); AmpC E. coli, class C, and OXA-10, oxacillinase-10, class D).” for “ions.”

SPM-1 = SPM-1 (Pseudomonas aeruginosa, UniProt Q8G9Q0); test: SPM-1 inhibition, fluorogenic cephalosporin (FC5) hydrolysis; format: biochemical
SPM-1, sequence (Q8G9Q0 entry or part of it): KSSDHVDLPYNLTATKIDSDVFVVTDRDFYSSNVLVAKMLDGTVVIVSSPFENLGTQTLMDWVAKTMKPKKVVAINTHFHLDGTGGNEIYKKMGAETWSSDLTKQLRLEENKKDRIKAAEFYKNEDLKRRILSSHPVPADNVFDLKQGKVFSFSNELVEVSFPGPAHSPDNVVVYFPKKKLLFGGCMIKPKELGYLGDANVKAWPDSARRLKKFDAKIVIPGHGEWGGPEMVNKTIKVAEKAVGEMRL
Method: as §1, §2
Figure S5: IC50 curves for SPM-1 inhibition time courses. Residual activities were calculated from the
as §3

VIM-2 = molecular target: T4, VIM-2 (Escherichia coli, UniProt Q5U7L7); test: biochemical
T4 construct: made in house
Method: as §1
as §2, with “ions. We also screened the inhibitors against a representative panel of SBLs from different classes (TEM-1, Temoneira β-lactamase-1, class A; CTX-M-15, cefotaxime hydrolysing β-lactamase from Munich 15, class A, extended spectrum β-lactamase (ESBL); AmpC E. coli, class C, and OXA-10, oxacillinase-10, class D).” for “ions.”
Figure S6: IC50 curves for VIM-2 inhibition time courses. Residual activities were calculated from the
as §3

IMP-1 = molecular target: T5, IMP-1 (Serratia marcescens, UniProt P52699); test: IMP-1 inhibition, fluorogenic cephalosporin (FC5) hydrolysis; format: biochemical
T5 construct: made in house
T5 sequence (P52699 19-246, looked up, species assumed): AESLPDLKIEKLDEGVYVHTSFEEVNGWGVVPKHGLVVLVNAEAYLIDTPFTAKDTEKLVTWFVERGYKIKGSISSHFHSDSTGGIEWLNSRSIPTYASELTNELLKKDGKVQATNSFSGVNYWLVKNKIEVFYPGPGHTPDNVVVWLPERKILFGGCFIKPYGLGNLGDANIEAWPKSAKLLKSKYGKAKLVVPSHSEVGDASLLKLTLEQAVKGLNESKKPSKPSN
Method: as §1, §2
Figure S3: IC50 curves for IMP-1 inhibition time courses. Residual activities were calculated from the
initial rate of FC5 hydrolysis after incubation of the enzyme with the inhibitor for 10 minutes.

OXA-10 = molecular target: T6, OXA-10 (Pseudomonas aeruginosa, UniProt P14489); test: SBL inhibition, OXA-10; format: biochemical; settings: read-out: residual activity OXA-10
T6 construct: made in house
T6 sequence (P14489 20-266, species assumed): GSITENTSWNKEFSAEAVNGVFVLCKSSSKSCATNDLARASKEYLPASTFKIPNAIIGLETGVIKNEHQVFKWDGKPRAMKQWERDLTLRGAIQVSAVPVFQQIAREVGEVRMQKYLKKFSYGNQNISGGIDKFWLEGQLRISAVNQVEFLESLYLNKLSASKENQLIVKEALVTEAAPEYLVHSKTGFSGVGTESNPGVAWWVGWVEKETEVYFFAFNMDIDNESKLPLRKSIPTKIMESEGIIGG
Method: as §1
as §2, with “ions. We also screened the inhibitors against a representative panel of SBLs from different classes (TEM-1, Temoneira β-lactamase-1, class A; CTX-M-15, cefotaxime hydrolysing β-lactamase from Munich 15, class A, extended spectrum β-lactamase (ESBL); AmpC E. coli, class C, and OXA-10, oxacillinase-10, class D).” for “ions.”
(§4) Figure S1. Residual activities of serine-β-lactamases (SBLs) upon inhibition by rhodanines and enethiols at
(§5) Inhibition of intact rhodanine on a panel of SBLs
(§6) Inhibition of intact rhodanine amide on a panel […]

CTX-M-15 = molecular target: T7, CTX-M-15 (Escherichia coli, UniProt Q9EXV5); test: SBL inhibition, CTX-M-15; format: biochemical; settings: read-out: residual activity CTX-M-15
T7 construct: made in house
T7 sequence (Q9EXV5 29-291, species assumed): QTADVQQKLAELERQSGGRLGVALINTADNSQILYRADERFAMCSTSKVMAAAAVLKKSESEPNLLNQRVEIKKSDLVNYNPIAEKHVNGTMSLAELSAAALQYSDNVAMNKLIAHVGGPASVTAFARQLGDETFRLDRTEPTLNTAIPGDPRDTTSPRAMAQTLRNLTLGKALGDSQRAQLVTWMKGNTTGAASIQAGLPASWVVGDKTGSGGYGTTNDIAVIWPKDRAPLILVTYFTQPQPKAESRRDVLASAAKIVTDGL
Method: as §1
as §2, with “ions. We also screened the inhibitors against a representative panel of SBLs from different classes (TEM-1, Temoneira β-lactamase-1, class A; CTX-M-15, cefotaxime hydrolysing β-lactamase from Munich 15, class A, extended spectrum β-lactamase (ESBL); AmpC E. coli, class C, and OXA-10, oxacillinase-10, class D).” for “ions.”
as §4, §5, §6

AmpC = molecular target: T8, AmpC (Escherichia coli, UniProt P00811); test: SBL inhibition, AmpC; format: biochemical, E. coli; settings: read-out: residual activity AmpC
T8 construct: made in house
T8 sequence (P00811 20-377): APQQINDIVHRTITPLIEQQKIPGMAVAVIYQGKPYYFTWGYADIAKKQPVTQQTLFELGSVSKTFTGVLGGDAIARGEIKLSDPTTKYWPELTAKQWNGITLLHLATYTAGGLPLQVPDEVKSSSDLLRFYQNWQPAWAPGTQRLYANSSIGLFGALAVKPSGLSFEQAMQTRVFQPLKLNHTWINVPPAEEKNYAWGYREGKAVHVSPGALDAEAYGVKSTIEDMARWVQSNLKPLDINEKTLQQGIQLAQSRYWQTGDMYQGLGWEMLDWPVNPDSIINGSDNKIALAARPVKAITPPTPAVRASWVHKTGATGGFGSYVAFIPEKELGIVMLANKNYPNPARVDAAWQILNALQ
Method: as §1
as §2, with “ions. We also screened the inhibitors against a representative panel of SBLs from different classes (TEM-1, Temoneira β-lactamase-1, class A; CTX-M-15, cefotaxime hydrolysing β-lactamase from Munich 15, class A, extended spectrum β-lactamase (ESBL); AmpC E. coli, class C, and OXA-10, oxacillinase-10, class D).” for “ions.”
as §4, §5, §6

TEM-1 = molecular target: T9, TEM-1 (Escherichia coli, UniProt P62593); test: SBL inhibition, TEM-1; format: biochemical; settings: read-out: residual activity TEM-1
T9 construct: made in house
T9 sequence (P62593 24-286 limits assumed): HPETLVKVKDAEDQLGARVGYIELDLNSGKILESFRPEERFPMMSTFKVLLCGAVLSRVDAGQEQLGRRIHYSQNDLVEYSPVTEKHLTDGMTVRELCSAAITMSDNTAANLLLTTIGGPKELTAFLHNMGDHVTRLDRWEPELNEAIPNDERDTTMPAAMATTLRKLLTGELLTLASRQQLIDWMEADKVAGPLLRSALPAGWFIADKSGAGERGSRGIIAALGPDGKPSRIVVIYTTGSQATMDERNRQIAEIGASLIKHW
Method: as §1
as §2, with “ions. We also screened the inhibitors against a representative panel of SBLs from different classes (TEM-1, Temoneira β-lactamase-1, class A; CTX-M-15, cefotaxime hydrolysing β-lactamase from Munich 15, class A, extended spectrum β-lactamase (ESBL); AmpC E. coli, class C, and OXA-10, oxacillinase-10, class D).” for “ions.”
as §4, §5, §6

[2] = Table 2, read-out: IC50 versus BcII
[3] = enethiols 6 assayed as sodium salts, 10 min incubation, read-out: IC50 NDM-1
[4] = enethiols 6 assayed as sodium salts, 10 min incubation, read-out: IC50 BcII (converted)
[5] = enethiols 6 assayed as sodium salts, 10 min incubation, read-out: IC50 SPM-1 (converted)
[6] = enethiols 6 assayed as sodium salts, 10 min incubation, read-out: IC50 VIM-2 (converted)
[7] = enethiols 6 assayed as sodium salts, 10 min incubation, read-out: IC50 IMP-1 (converted)
[8] = lower end of the range, read-out: IC50 values from (lowest across the MBL panel)

T1 sequence (C7C422 29-270, looked up, species assumed): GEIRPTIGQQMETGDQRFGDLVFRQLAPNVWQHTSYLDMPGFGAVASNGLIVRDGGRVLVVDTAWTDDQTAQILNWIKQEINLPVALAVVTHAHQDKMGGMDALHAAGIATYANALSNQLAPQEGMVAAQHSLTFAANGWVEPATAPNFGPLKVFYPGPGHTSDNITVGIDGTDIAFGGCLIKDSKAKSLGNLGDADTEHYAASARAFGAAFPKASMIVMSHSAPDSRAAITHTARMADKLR

SMILES | IC50 (CphA) [nM] | IC50 (NDM-1; [3]) [nM] | IC50 (BcII; [4]) [nM] | IC50 (SPM-1; [5]) [nM] | IC50 (VIM-2; [6]) [nM] | IC50 (IMP-1; [7]) [nM] | IC50 [1, 8] [nM] | further results
O=C(O)C(O)Cc1ccccc1 (stereo not shown) [3-Phenyllactic acid, reference compound] | > 100000 | – | – | – | – | – | – | IC50 (NDM-1): > 100000 nM; MBL inhibition, result in words ([1]; at 100 µM): inactive; IC50 (BcII; [2]): > 100000 nM; IC50 (SPM-1; Table 2, read-out: IC50 versus SPM-1): > 100000 nM; IC50 (VIM-2): > 100000 nM; IC50 (IMP-1): > 100000 nM
CN1CCN(NC(=O)CN2C(=O)/C(=C/c3ccccc3)SC2=S)CC1 [Compound 5a] | > 50000 | 26700 | > 50000 | > 50000 | 16400 | 22700 | – | –
CN1CCN(NC(=O)CN2C(=O)/C(=C/c3c(F)ccc(F)c3F)SC2=S)CC1 [Compound 5k] | – | 40100 | 3500 | 1500 | 2600 | 1600 | – | IC50 ([1]; SPM-1, IMP-1, BcII, VIM-2, read-out: IC50 values for all the tested B1 subclass MBLs, with the exception of NDM-1): < 3500 nM
CN1CCN(NC(=O)CN2C(=O)/C(=C/c3c(Cl)cccc3Cl)SC2=S)CC1 [Compound 5m] | > 50000 | 28400 | 200 | 200 | 300 | 200 | – | –
CN1CCN(NC(=O)CN2C(=O)/C(=C/c3c4ccccc4cc4ccccc34)SC2=S)CC1 [Compound 5r] | – | – | – | – | – | – | – | remaining activity at 200 µM (OXA-10): ~47%; remaining activity at 200 µM (CTX-M-15): ~40%; remaining activity at 200 µM (AmpC): ~18%; remaining activity at 200 µM (TEM-1): ~6%
O=C(O)/C(S)=C/c1ccccc1 [Compound 6a] | – | 7900 | 700 | 300 | 400 | 300 | – | IC50 (BcII; [2]): 700 ± 200 nM; IC50 (CphA; Table 2, read-out: IC50 versus CphA): 2100 ± 20 nM
O=C(O)/C(S)=C/c1ccccc1Br [Compound 6h] | – | 16200 | 5800 | 3500 | 2700 | 800 | – | –
O=C(O)/C(S)=C/c1c(F)cccc1Cl [Compound 6j] | – | 4400 | 60 | 4.3 | 50 | 30 | – | –
O=C(O)/C(S)=C/c1c(F)ccc(F)c1F [Compound 6k] | – | 3300 | 300 | 100 | 300 | 400 | – | –
O=C(O)/C(S)=C/c1c(Cl)cccc1Cl [Compound 6m] | 800 ± 20 | 600 | 70 | 10 | 30 | 10 | 10 | –
O=C(O)/C(S)=C/c1cccc(Cl)c1Cl [Compound 6n] | – | 46500 | 1000 | 200 | 1300 | 1000 | 200 | –
O=C(O)/C(S)=C/c1cc(Cl)ccc1Cl [Compound 6o] | – | 45300 | 1600 | 800 | 1500 | 4700 | 800 | –
O=C(O)/C(S)=C/c1c(F)cccc1F [Compound 6p] | – | 21500 | 100 | 60 | 200 | 200 | 60 | –
